Data set [1] relates to male C57/B6 mice. The experiment in a line: microRNA profile of plasma, acetaminophen treatment group vs control group. The data set is classed as in vivo. Conditions: 300 mg/kg single intraperitoneal injection, 24 hours post exposure, FIG. 3. The procedure:
Approximately, 800 μl of QIAzol lysis reagent was added to 200 μl liquid sample. The sample was mixed in a tube followed by adding 200 μl of chloroform. After mixing rigorously for 15 seconds, the sample was then centrifuged at 12,000×g for 15 minutes. The upper aqueous phase was carefully transferred to a new collection tube, and 1.5 total volumes of ethanol was added. The sample was then applied directly to a glass membrane containing column and the RNA was bound and purified by three contiguous washing to remove unwanted contamination. The immobilized RNA was then collected from the membrane with a low salt elution buffer.
The male C57/B6 mice were randomly grouped into two groups, a treatment group (3 animals) and control group (4 animals). […] Mice were sacrificed at 24 hours post exposure, the plasma samples were collected and RNA was isolated.
The expression levels of microRNA sequences in the serum were used to make a microRNA profile. The differentially expressed microRNA sequences between the treatment group and the control group were clustered with the Hierarchical clustering method and is shown in FIG. 3.

Data set [2] deals with male C57/B6 mice. Conditions: mouse, in vivo. The procedure: Quantitative PCR (QPCR) with microRNA specific primer sets were used to confirm the results from array hybridization. In brief, a SYBR Green based method, miScript real-time PCR (Qiagen Inc. Valencia, Calif., USA), or TaqMan primer set from Apply Biosystems, was used with 50 ng of total RNA from each sample. The first strand cDNA was generated according to the manufacturer's instruction. Approximately 2.5 ng of cDNA was used in the PCR reaction. The yield of 18 to 20 base pair fragments (based on SYBR Green intensity) corresponding to the specific microRNA species was monitored with the 7900HT fast real-time PCR system from Applied Biosystems (Applied Biosystems, Foster City, Calif.). QPCR results were analyzed by SDS 2.2.2, with a manual CT threshold value of 0.2.
The male C57/B6 mice were randomly grouped into nine different groups with 4 animals in each group. […] Mice were sacrificed and plasma samples were collected at 1, 3 and 24 hours post-exposure. The nine groups were: 1) 1 hour control; 2) 1 hour treatment 1; 3) 1 hour treatment 2; 4) 1 hour treatment 3; 5) 3 hour control; 6) 3 hour treatment 1; 7) 3 hour treatment 2; 8) 3 hour treatment 3; and 9) 24 hour treatment 3. […] The expression levels of two different microRNA sequences, mir-486 and mir-122, in the serum were profiled by quantitative polymerase chain reactions (Q-PCR). […]

In the case of `CC(=O)Nc1ccc(O)cc1` [acetaminophen], the “levels of microRNA sequences in serum/plasma, treatment vs control” value in the data set with male C57/B6 mice [1] was “levels of certain microRNA sequences in the serum could be used as an indication of the acetaminophen toxicity”. Also, the “mir-486 and mir-122 intensities at one hour” value in the data set on male C57/B6 mice [2] is on record as “Clear changes”.

These data come from patent US8748101B2, “Methods, compositions, and devices utilizing MicroRNA to determine physiological conditions” (Battelle Memorial Institute, priority 2008, dated 2014).
